Data: patent US4578498A, “Phenylethylene derivatives and their use as drugs” (BASF Aktiengesellschaft, priority 1982, dated 1986)
pIC50: −log10 of the molar value. Where two headings read alike, the source gives them in different places.

Columns and labels:
[1] = tested on: utriculi in the Rhino mouse; assay: Reduction of the number of utriculi in the Rhino mouse model; type: in vivo, Rhino mice; details: for inhibition in vivo at 0.1 % / inhibition in vivo at 0.2 %: read-out: Decrease in % (number of utriculi / cysts)
comedos = assay: Comedolytic activity on tar-induced comedos of rabbit ears; type: in vivo, albino rabbits; details: Oryctolagus cuniculus, 336 h, topical, read-out: Comedolytic activity in % (decrease in number of comedos vs control ear)
Description: The development of comedos was induced by one topical application of 0.5 ml per day, onto both ears of albino rabbits, of 5% of tar in Polyan® (ester of lanolin alcohol and linolenic acid, produced by Amerchol Corp., U.S.A.), the application being carried out on 5 successive days per week over a period of two weeks. Thereafter, the test substances in ethanol/propylene glycol (70:30, v/v, 0.5 ml) were applied topically onto the inner skin area of one ear of each rabbit once per day on 5 successive days per week over a period of two weeks. The second ear of each animal served as an untreated control.
After further treatment for 72 hours with the test substance, the rabbits were sacrificed. A skin sample of about 6 cm^2 was taken from each auricle just outside the oratory passage, and this sample was divided into sections of about 1 cm^2. These pieces of skin were immersed for 2 minutes in warm water at 60° C. The epidermis was carefully peeled off using the flat end of a spatula and a small forceps, and was placed, dermal side up, on the slide. After drying in air overnight, the test strips were assessed under a stereomicroscope. […] The comedos were recognizable as discrete, cylindrical to round keratose particles which were of similar appearance and whose size and number were proportional to the activity of the test substance. The comedolytic effect was determined as the decrease in the number of comedos, in %, compared with the control ear (cf. Table 2).

[2] = tested on: white male New Zealand rabbits; details: rabbit, in vivo
Description: 5. The toleration of the test substances after topical administration was determined in experiments with 6 white male New Zealand rabbits in each case. In the case of each test animal, an area of about 6 cm^2 on the back was shaved. The test substances were dissolved in ethanol/propylene glycol (70:30, v/v), and 0.2 ml of this solution was applied with an automatic micropipette on 9 successive days by carefully rubbing the solution into a particular point twice daily at 6-hour intervals.
Before each application in the morning, all test areas were assessed subjectively in respect of erythemas and scaling, a numerical scale from 0 to 3 being employed (0=no reaction, 1=mild, 2=moderate and 3=severe). The average erythema formation and scaling gives the relative irritant level of the test substances in comparison with vitamin A acid.

tracheal epithelium = assay: Elimination of keratinization in tracheal cultures (antitumor action); type: cell-based, hamster; details: Mesocricetus auratus, 240 h; for IC50: hamster tracheal culture, 10 days, serum-free, extrapolated from dose-effect curves, read-out: ED50 (molar dose which suppresses keratinization in half the cultures) (converted)
Excerpt: The test model is used to determine the intrinsic property of the novel compounds of increasing the differentiation of epithelial cells. The great significance of this screening method in predicting the potential use of a new retinoid for the prevention of tumors in epithelial tissue is generally recognized. Moreover, it is known that every in vitro test system has disadvantages in respect of the prediction of in vivo activity. Apart from these basic restrictions, tracheal cell cultures are one of the most useful methods of determining the biological activity of novel retinoids.
The ability of the test substances to eliminate keratinization in a defined in vitro system was determined. Tracheae of hamsters at a very early stage of vitamin A deficiency were used for culture. […] Their average weight was from 47 to 52 g. The tracheal epithelium was in general slightly columnar or pavement-like and had only isolated areas of squamous metaplasia. Each trachea was opened along the membrane-like dorsal wall, from the larynx to the carina, and cultured in a serum-free medium (CMRL-1066 supplemented by 1.0 μg/ml of crystalline bovine insulin, 0.1 μg/ml of hydrocortisone hemisuccinate, 2mM of glutamine, 100 units/ml of penicillin and 100 μg/ml of streptomycin). The cultures were aerated with a mixture of 50% of oxygen, 45% of nitrogen and 5% of carbon dioxide, and the culture dishes were shaken gently to bring the tracheae into contact with the gas and the culture medium. All tracheae were initially kept for 3 days in the culture medium without the addition of retinoid. After this period, some tracheae were removed. […] The remaining tracheae were divided into groups, which were then treated with the following additives:
(a) The test substance dissolved in spectroscopically pure dimethylsulfoxide (the final concentration of dimethylsulfoxide in the culture medium was never greater than 0.1%).
(b) An equivalent amount of dimethylsulfoxide without a further additive.
The nutrient medium was changed three times per week. After culture for 10 days, the remaining tracheae were worked up by being fixed in 10% strength buffered formaldehyde solution and embedded in paraffin. […] Dose-effect curves of the novel compounds were recorded. Table 1 below gives the extrapolated molar doses which suppress keratinization in half the cultures (ED 50%).

[3] = tested on: leukemia cells of patients having promyelocytic leukemia; assay: Induction of cell differentiation in promyelocytic leukemia cells; type: cell-based, human (patients)
[4] = concentration 0.1%, Rhino mouse
[5] = concentration 0.1%, rabbit ear, two weeks
[6] = concentration 0.2%, Rhino mouse

SMILES: COC(=O)c1ccc(/C=C(\C)c2cc3c(cc2CC(C)C)C(C)(C)CCC3(C)C)cc1 [Example 20, methyl E4-[2-methyl-2-(1,4,4-tetramethyl-6-(2-methylpropyl)-1,2,3,4-tetrahydronaphth-7-yl)-vinyl]-benzoate]
- inhibition in vivo at 0.1 % [1, 4]: 6%

SMILES: CCc1cc2c(cc1/C(C)=C/c1ccc(C(=O)O)cc1)C(C)(C)CCC2(C)C [Example 5, E4-[2-methyl-2-(1,1,4,4-tetramethyl-6-ethyl-1,2,3,4-tetrahydronaphth-7-yl)-vinyl]-benzoic acid]
- inhibition in vivo at 0.1 % (comedos; [5]): 54%
- inhibition in vivo at 0.1 % [1, 4]: 69%
- Erythema [2]: 2.0
- Scaling [2]: 1.7

SMILES: C/C(=C/c1ccc(C(=O)O)cc1)c1cc2c(cc1C)C(C)(C)CCC2(C)C [Example 10, Z4-[2-methyl-2-(1,1,4,4,6-pentamethyl-1,2,3,4-tetrahydronaphth-7-yl)-vinyl]-benzoic acid]
- inhibition in vivo at 0.1 % (comedos; [5]): 31%
- inhibition in vivo at 0.1 % [1, 4]: 49%

SMILES: C/C(=C\c1ccc(C(=O)Nc2ccc(O)cc2)cc1)c1ccc2c(c1)C(C)(C)CCC2(C)C [Example 31, E-4-[2-methyl-2-(1,1,4,4-tetramethyl-1,2,3,4-tetrahydronaphth-7-yl)-vinyl]-benzoic acid 4-hydroxyanilide]
- IC50 (tracheal epithelium): 3 pM

SMILES: C/C(=C\c1ccc(C(=O)O)cc1)c1cc2c(cc1CCC(C)C)C(C)(C)C(C)C2(C)C (centres unmarked) [Example 25, E4-[2-methyl-2-(1,1,2,3,3-pentamethyl-5-(3-methylbutyl)-indan-6-yl)-vinyl]-benzoic acid]
- inhibition in vivo at 0.2 % [1, 6]: 60%

SMILES: CCCc1cc2c(cc1/C(C)=C/c1ccc(C(=O)O)cc1)C(C)(C)CCC2(C)C [Example 11, E4-[2-methyl-2-(1,1,4,4-tetramethyl-6-propyl-1,2,3,4-tetrahydronaphth-7-yl)-vinyl]-benzoic acid]
- inhibition in vivo at 0.1 % (comedos; [5]): 40%
- inhibition in vivo at 0.1 % [1, 4]: 59%

SMILES: C/C(=C\c1ccc(C(=O)Nc2ccc(O)cc2)cc1)c1ccc2c(c1)C(C)(C)C(C)C2(C)C (centres unmarked) [Example 32, E-4-[2-methyl-2-(1,1,2,3,3-pentamethylindan-6-yl)-vinyl]-benzoic acid 4-ydroxyanilide]
- IC50 (tracheal epithelium): 1 pM

SMILES: C/C(=C\c1ccc(C(=O)O)cc1)c1cc2c(cc1C(C)C)C(C)(C)CCC2(C)C [Example 7, E4-[2-methyl-2-(1,1,4,4-tetramethyl-6-isopropyl-1,2,3,4-tetrahydronaphth-7-yl)-vinyl]benzoic acid]
- IC50 (tracheal epithelium): 10 pM
- inhibition in vivo at 0.1 % (comedos; [5]): 59%
- inhibition in vivo at 0.1 % [1, 4]: 62%
- Erythema [2]: 3.0
- Scaling [2]: 3.0

SMILES: C/C(=C\c1ccc(C(=O)Nc2nnn[nH]2)cc1)c1ccc2c(c1)C(C)(C)C(C)C2(C)C (centres unmarked) [Example 40, E-4-[2-methyl-2-(1,1,2,3,3,- pentamethylindan-6-yl)-vinyl]-N(tetrazol-5-yl)-benzamide]
- IC50 (tracheal epithelium): 1 pM

SMILES: CC1=C(/C=C/C(C)=C/C=C/C(C)=C/C(=O)O)C(C)(C)CCC1 [Vitamin A acid, reference compound]
- pIC50 (tracheal epithelium; read-out: ED50 (molar dose which suppresses keratinization in half the cultures)): 11.00
- inhibition in vivo at 0.1 % (comedos): 67%
- inhibition in vivo at 0.1 % ([1]; Mus musculus): 60%
- Erythema [2]: 3.0
- Scaling [2]: 3.0

SMILES: CCCCCCCCc1cc2c(cc1/C(C)=C/c1ccc(C(=O)O)cc1)C(C)(C)CCC2(C)C [Example 15, E4-[2-methyl-2-(1,1,4,4-tetramethyl-6-n-octyl-1,2,3,4-tetrahydronaphth-7-yl)-vinyl]-benzoic acid]
- inhibition in vivo at 0.1 % (comedos; [5]): 59%
- inhibition in vivo at 0.1 % [1, 4]: 59%

SMILES: C/C(=C\c1ccc(C(=O)O)cc1)c1cc2c(cc1C)C(C)(C)CCC2(C)C [Example 2, E-4-[2-methyl-2-(1,1,4,4,6-pentamethyl-1,2,3,4-tetrahydronaphth-7-yl)-vinyl]-benzoic acid]
- IC50 (tracheal epithelium): 10 pM
- inhibition in vivo at 0.1 % (comedos; [5]): 73%
- induction of cell differentiation to give mature granulocytes [3]: induce cell differentiation to give mature granulocytes
- inhibition in vivo at 0.1 % [1, 4]: 68%
- Erythema [2]: 2.8
- Scaling [2]: 2.7

SMILES: C/C(=C\c1ccc(C(=O)O)cc1)c1cc2c(cc1CC(C)C)C(C)(C)C(C)C2(C)C (centres unmarked) [Example 18, E4-[2-methyl-2-(1,1,2,3,3-pentamethyl-5-(2-methylpropyl)-indan-6-yl)-vinyl]-benzoic acid]
- inhibition in vivo at 0.2 % [1, 6]: 42%

SMILES: C/C(=C/c1ccc(C(=O)O)cc1)c1cc2c(cc1CC(C)C)C(C)(C)CCC2(C)C [Example 17, Z4-[2-methyl-2-(1,1,4,4-tetramethyl-6-(2-methylpropyl)-1,2,3,4-tetrahydronaphth-7-yl)-vinyl]-benzoic acid]
- inhibition in vivo at 0.2 % (comedos; concentration 0.2%, rabbit ear, two weeks): 56%
- inhibition in vivo at 0.2 % [1, 6]: 62%

SMILES: CCOC(=O)c1ccc(/C=C(\C)c2cc3c(cc2CC(C)C)C(C)(C)CCC3(C)C)cc1 [Example 19, ethyl E4-[2-methyl-2-(1,1,4,4-tetramethyl-6-(2-methylpropyl)-1,2,3,4-tetrahydronaphth-7-yl)-vinyl]-benzoate]
- inhibition in vivo at 0.1 % [1, 4]: 12%

SMILES: CCOC(=O)c1ccc(/C=C(\C)c2cc3c(cc2C(C)C)C(C)(C)CCC3(C)C)cc1 [Example 6, Ethyl E4-[2-methyl-2-(1,1,4,4-tetramethyl-6-isopropyl-1,2,3,4-tetrahydronaphth-7-yl)-vinyl]-benzoate]
- inhibition in vivo at 0.1 % (comedos; [5]): 68%
- inhibition in vivo at 0.1 % [1, 4]: 59%

SMILES: CCCCCCCCc1cc2c(cc1/C(C)=C/c1ccc(C(=O)O)cc1)C(C)(C)C(C)C2(C)C (centres unmarked) [Example 24, E4-[2-methyl-2-(1,1,2,3,3-pentamethyl-5-n-octyl-indan-6-yl)-vinyl]-benzoic acid]
- Decrease in % (number of utriculi / cysts) [1, 6]: 42%

SMILES: CCOC(=O)c1ccc(/C=C(\C)c2cc3c(cc2C)C(C)(C)CCC3(C)C)cc1 [Example 1, Ethyl E-4-[2-methyl-2-(1,1,4,4,6-pentamethyl-1,2,3,4-tetrahydronaphth-7-yl)-vinyl]-benzoate]
- inhibition in vivo at 0.1 % (comedos; [5]): 75%
- inhibition in vivo at 0.1 % [1, 4]: 65%

SMILES: C/C(=C\c1ccc(C(=O)O)cc1)c1cc2c(cc1CCC(C)C)C(C)(C)CCC2(C)C [Example 23, E4-[2-methyl-2-(1,1,4,4-tetra-methyl-6-(3-methylbutyl)-1,2,3,4-tetrahydronaphth-7-yl)-vinyl]-benzoic acid]
- inhibition in vivo at 0.2 % [1, 6]: 62%

SMILES: CCCCc1cc2c(cc1/C(C)=C/c1ccc(C(=O)O)cc1)C(C)(C)CCC2(C)C [Example 14, E4-[2-methyl-2-(1,1,4,4-tetramethyl-6-n-butyl-1,2,3,4-tetrahydronaphth-7-yl)-vinyl]-benzoic acid]
- inhibition in vivo at 0.1 % (comedos; [5]): 79%
- inhibition in vivo at 0.1 % [1, 4]: 64%

SMILES: C/C(=C\c1ccc(C(=O)O)cc1)c1cc2c(cc1CC(C)C)C(C)(C)CCC2(C)C [Example 8, E4-[2-methyl-2-(1,1,4,4-tetra-methyl-6-(2-methylpropyl)-1,2,3,4-tetrahydronaphth-7-yl)-vinyl]-benzoic acid]
- inhibition in vivo at 0.1 % (comedos; [5]): 62%
- inhibition in vivo at 0.1 % [1, 4]: 52%
- Erythema [2]: 1.4
- Scaling [2]: 1.0
